Data taken from patent US10301308B2, “Azetidine derivatives for tau imaging” (Eli Lilly and Company, priority 2015, dated 2019).

Legend:
[1] = Preliminary stability of Compound 8 formulations (radiochemical purity by HPLC); assay type: physicochemical
Procedure: The HPLC fraction containing the purified 3-(3-[18F]-fluoroazetidin-1-yl)-8-methylbenzo[4,5]imidazo[1,2-a]pyridine is diluted with 0.5% (w/v) sodium ascorbate in WFI (40 mL). The diluted solution is then passed through a Sep-Pak® C18 Plus Light Cartridge (130 mg Sorbent per Cartridge, 55-105 μm Particle Size, Waters Part No. WAT023501; conditioned with ethanol (5 mL) then WFI (5 mL) prior to use) and the retained 3-(3-[18F]-fluoroazetidin-1-yl)-8-methylbenzo[4,5]imidazo[1,2-a]pyridine is washed with 0.5% (w/v) sodium ascorbate in water for injection solution (10 mL). 3-(3-[18F]-fluoroazetidin-1-yl)-8-methylbenzo[4,5]imidazo[1,2-a]pyridine is eluted off the C18 cartridge using dehydrated alcohol, USP (1 mL) into a flask containing 7 mL of 0.5% (w/v) sodium ascorbate in 0.9% sodium chloride for injection, USP. The C18 cartridge is then rinsed with an additional 2 mL of 0.5% (w/v) sodium ascorbate in 0.9% sodium chloride for injection, USP. The resulting solution (total 10 mL) is sterile filtered through a 0.22 μm Millex GV PVDF filter (Millipore SLGV013SL) into the bulk product vial (BPV: 30 mL Sterile Empty Vial from Allergy Laboratories with a 20 mm chlorobutyl stopper). A sample from the BPV is taken out for quality control (see FIG. 2 for representative chromatogram) by HPLC using the gradient method detailed in Table 1 below.
Preliminary stability of 3-(3-[18F]-fluoroazetidin-1-yl)-8-methylbenzo[4,5]imidazo[1,2-a]pyridine (Compound 8) formulations are evaluated. Samples from batches (size ranging from 235 mCi to 471 mCi) are taken and analyzed by HPLC for radiochemical purity over an 6 hour time period.

[2] = system: tau protein; assay: Clinical PET imaging of tau protein in the brain (SUVr); assay type: in vivo, human
Procedure: Clinical evaluation of 3-(3-[18F]-Fluoroazetidin-1-yl)-8-methylbenzo[4,5]imidazo[1,2-a]pyridine (Compound 8) as a PET radioligand for imaging tau protein deposition in patients with AD or other neurodegenerative disorders is conducted in healthy volunteers. AD patients, or Chronic Traumatic Encephalopathy (CTE) subjects, by completion of one or more PET scans with Compound 8. Dynamic PET imaging is acquired on a Siemens ECAT EXACT HR+ over 150 minutes following Compound 8 or [18F]AV-1451 injection (0-60 and 90-150 minute imaging segments). Compound 8 or [18F]AV-1451 scans are acquired similarly in two imaging sessions. A brain MRI is also obtained. PET and MRI images are aligned and normalized, and ATLAS-based volumes of interest (VOI) are applied to the dynamic PET series. Compound 8 or [18F]AV-1451 are evaluated in terms of kinetic profile as well as target region to cerebellum standardized uptake value ratio (SUVr between 100-120 min) between healthy volunteers and AD or CTE subjects.

[3] = batch 235 mCi, 23.5 mCi/mL, 10% EtOH, 0.45% Sodium Ascorbate in 0.9% Sodium Chloride
[4] = batch 295 mCi, 14.8 mCi/mL, 10% EtOH, 0.45% Sodium Ascorbate in 0.9% Sodium Chloride
[5] = batch 337 mCi, 33.7 mCi/mL, 10% EtOH, 0.45% Sodium Ascorbate in 0.9% Sodium Chloride
[6] = batch 471 mCi, 47.1 mCi/mL, 10% EtOH in 0.9% Sodium Chloride (no sodium ascorbate)

Cc1ccc2nc3cc(N4CC([18F])C4)ccn3c2c1 [Compound 8, 3-(3-[18F]-fluoroazetidin-1-yl)-8-methylbenzo[4,5]imidazo[1,2-a]pyridine]
Stability Results (% RCP) T0 ([1]; batch 235 mCi, 23.5 mCi/mL, 10% EtOH (v/v), 0.45% (w/v) Sodium Ascorbate in 0.9% Sodium Chloride Injection, USP): 98 % RCP
Stability Results (% RCP) T0+2 h [1, 3]: 97 % RCP
Stability Results (% RCP) T0+4 h [1, 3]: 97 % RCP
Stability Results (% RCP) T0+6 h ([1]; batch 235 mCi, 23.5 mCi/mL, 10% EtOH, 0.45% Sodium Ascorbate in 0.9% Sodium Chloride, T0+6 h): 97 % RCP
Stability Results (% RCP) T0 [1, 4]: 97 % RCP
Stability Results (% RCP) T0+2 h [1, 4]: 96 % RCP
Stability Results (% RCP) T0+4 h [1, 4]: 96 % RCP
Stability Results (% RCP) T0+6 h ([1]; batch 295 mCi, 14.8 mCi/mL, 10% EtOH, 0.45% Sodium Ascorbate in 0.9% Sodium Chloride, T0+6 h): 96 % RCP
Stability Results (% RCP) T0 [1, 5]: 98 % RCP
Stability Results (% RCP) T0+2 h [1, 5]: 97 % RCP
Stability Results (% RCP) T0+4 h [1, 5]: 96 % RCP
Stability Results (% RCP) T0+6 h ([1]; batch 337 mCi, 33.7 mCi/mL, 10% EtOH, 0.45% Sodium Ascorbate in 0.9% Sodium Chloride, T0+6 h): 96 % RCP
Stability Results (% RCP) T0 ([1]; batch 471 mCi, 47.1 mCi/mL, 10% EtOH (v/v) in 0.9% Sodium Chloride Injection, USP (no sodium ascorbate)): 89 % RCP
Stability Results (% RCP) T0+2 h [1, 6]: 89 % RCP
Stability Results (% RCP) T0+4 h [1, 6]: 80 % RCP
Stability Results (% RCP) T0+6 h ([1]; batch 471 mCi, 47.1 mCi/mL, 10% EtOH in 0.9% Sodium Chloride (no sodium ascorbate), T0+6 h column, value taken at 5 h): 0 (5 h) % RCP
stability of formulation over time ([1]; batch formulated without sodium ascorbate): deteriorates over time and degrades by 5 hours
radiochemical purity retained ([1]; batches formulated with sodium ascorbate, up to 6 hours): 96-97%
SUVr values compared to [18F]AV-1451 ([2]; AD subjects): slightly higher SUVr values compared to [18F]AV-1451
mean SUVr averaged over all regions ([2]; AD subjects): ~1.6
uptake in cortical brain regions, AD subjects compared with healthy controls ([2]; AD subjects vs healthy controls): Higher uptake
SUVr in other cortical regions ([2]; CTE subject): ~1.0
SUVr in focal sub-regions with high uptake ([2]; CTE subject, sub-regions of inferior lateral parietal, superior parietal and posterior temporal cortex): ~1.5
mean SUVr averaged over all regions ([2]; healthy volunteer subjects): ~1.1
SUVr in cortical regions ([2]; healthy volunteer subjects, target region to cerebellum): 1.0-1.1
